# In patent US8791099B2, “Transition metal complexes of corroles for preventing cardiovascular diseases or disorders” (Technion Research and Development Foundation Ltd., priority 2007, dated 2014):
# What was measured:
# [1] = Decomposition of peroxynitrite, comparison with punicalagin; settings: calculated from rate constants
# Experimental: For initial assessment of possible superiority of the metallocorroles relative to natural antioxidants, we have determined the effect of excess (45-135 μM) punicalagin—the active polyphenolic hydrolysable tannin ingredient of pomegranate juice (Tzulker et al., 2007), on decomposition of peroxynitrite (40 μM).
# J-774 macrophages = assay: Cholesterol efflux from J-774 macrophages by serum of treated E^0 mice; settings: drinking water 0.04 mM (8 mg/Kg/day), 14 weeks
# Experimental: J-774 macrophages were incubated with [^3H]-labeled cholesterol for 1.5 h at 37° C. followed by cell wash in ice-cold PBS (3×) and further incubation in the presence of 15 μL mice serum for 3 h at 37° C. Cellular and medium [^3H]-labels were quantitated and HDL-mediated cholesterol efflux was calculated as the ratio of [^3H]-label in the medium/[^3H]-label in the medium+[^3H]-label in cells.
# [2] = test system: mouse peritoneal macrophages (MPM); assay: Cholesterol efflux from MPM of treated E^0 mice; settings: drinking water 0.04 mM (8 mg/Kg/day), 14 weeks
# Experimental: Mouse peritoneal macrophages were incubated with [^3H]-labeled cholesterol for 1 h at 37° C. followed by cell wash in ice-cold PBS (3×) and further incubation in the absence or presence of 100 μg of human HDL protein/ml for 3 h at 37° C. Cellular and medium [^3H]-labels were quantitated and HDL-mediated cholesterol efflux was calculated as the ratio of [^3H]-label in the medium/[^3H]-label in the medium+[^3H]-label in cells.
# [3] = test system: mouse peritoneal macrophages (MPM); assay: Cholesterol synthesis by MPM of treated E^0 mice; settings: drinking water 0.04 mM (8 mg/Kg/day), 14 weeks
# Experimental: Cellular cholesterol biosynthesis was assayed after incubation of macrophages (3×10^6 well^−1) overnight with DMEM containing 2% BSA followed by additional 3 h of incubation at 37° C. with [^3H]-acetate (3.3 μCi/ml). Cellular lipids were extracted with hexane:isopropanol (3:2, v:v), and the upper phase was dried under nitrogen. The lipids were then separated by TLC using an eluent of hexane:ether:acetic acid (130:30:1.5, v:v:v). Unesterified cholesterol spots were visualized by iodine vapor (by using standard for identification) and counted with β-counter.
smiles,measurement,setting,value
"O=C1O[C@H]2[C@@H]3OC(=O)c4cc(O)c(O)c(O)c4-c4c(O)c(O)c5oc(=O)c6c(c(O)c(O)c7oc(=O)c4c5c76)-c4c(cc(O)c(O)c4O)C(=O)OC[C@H]3OC(O)[C@@H]2OC(=O)c2cc(O)c(O)c(O)c2-c2c1cc(O)c(O)c2O (mixture of isomers) [punicalagin, reference compound]",Minimal concentration required for reducing the half lifetime of peroxynitrite by 50%,[1],250 mol %
"COc1c(F)c(F)c(C2=C3C=CC(=N3)C(c3c(F)c(F)c(OC)c(F)c3F)=c3ccc4[n]3[Fe]3[n]5c(cc(S(=O)(=O)O)c5C=4c4c(F)c(F)c(OC)c(F)c4F)-c4c(S(=O)(=O)O)cc2[n]43)c(F)c1F [2-Fe, 5,10,15-tris(4-methoxy-2,3,5,6-tetrafluorophenyl)-2,17-bis(sulfonic acid)-corrolato iron(III)]",Increase in serum-mediated cholesterol efflux from J-774 macrophages,J-774 macrophages,9%
same,Increase in cholesterol efflux from the E^0 MPM,[2],14%
same,Increase of cholesterol synthesis by MPMs,[3],8%
